Data on 1 compound can be found in BindingDB's records for doi:10.1016/j.ejmech.2017.07.038 (Jain University, 2017).

A short description of the assay: Antagonist activity at ER in human MCF7 cells assessed as inhibition of 17beta-estradiol-induced cell proliferation.

The term IC50 denotes the point on the concentration scale where inhibition reaches its midpoint. In the case of `Oc1ccc2c(c1)C(c1ccc(OCCN3CCCCC3)cc1)c1c(sc3cc(O)ccc13)C2` (stereo unspecified), the concentration for half-maximal inhibition (IC50) is 0.9 nM.
